For assay [1], the system named is WT pseudotyped virus (PSV) infection of U373 cells. Kind of assay: microbe, parasite or virus in culture. The class given is cell-based. As to conditions: for IC50: Human immunodeficiency virus 1, U373 MG, cells treated 6 h, washed; for Fold Change vs EFdA: fold change of the persistence index relative to EFdA; for Persistence Index: ratio of the IC50 determined at 48 and 0 h.

The subject of assay [2] is WT pseudotyped virus (NL4-3 provirus with HIV gp160 envelope) in U373 cells. In words: PSV assay (pseudotyped virus assay), WT. Conditions: Human immunodeficiency virus 1, NL43, U373 MG, read-out: WT IC50.
Source text: A pseudotyped virus assay (PSV) was used to assess the potency of the compounds. Replication defective virus was produced by co-transfection of a plasmid containing an NL4-3 provirus [containing a mutation in the envelope open reading frame (ORF) and a luciferase reporter gene replacing the nef ORF] and a CMV-promoter expression plasmid containing an ORF for various HIV gp160 envelope clones. The harvested virus was stored at −80 C in small aliquots and the titer of the virus measured to produce a robust signal for antiviral assays.
The PSV assay was performed by using U373 cells stably transformed to express human CD4, the primary receptor for HIV entry and either human CXCR4 or human CCR5 which are the co-receptors required for HIV entry as target cells for infection. […] This dose-range was applied to U373 cells and the pre-made pseudotyped virus added. The amount of luciferase signal produced after 3 days of culture was used to reflect the level of pseudotyped virus infection. […] IC50 values were determined from a 10 point dose response curve using 3-4-fold serial dilution for each compound, which spans a concentration range>1000 fold.
These values are plotted against the molar compound concentrations using the standard four parameter logistic equation:
y=((Vmax*x^n)/(K^n+x^n))+Y2 • where: • Y2=minimum y n=slope factor • Vmax=maximum y x=compound concentration [M] • K=EC50
Assay [3] has as its system M184V pseudotyped virus in U373 cells. The class given is cell-based, HIV.
[4] abbreviates: infected 48 h after removal of compound, read-out: WT IC50 at t = 48 h.
[5] abbreviates: infected immediately (0 h), read-out: WT IC50 at t = 0 h.
The mark [6] stands for this setting: Table 4, luciferase signal after 3 days of culture.
The mark [7] stands for this setting: Table 5, mean of a greater number of data replicates.

Read-outs that look alike come from different tables or passages of the source.

For the compound `C#C[C@]1(COC(=O)C(CCC)CCC)O[C@@H](n2cnc3c(N)nc(F)nc32)C[C@@H]1O` [Example 4, ((2R,3S,5R)-5-(6-amino-2-fluoro-9H-purin-9-yl)-2-ethynyl-3-hydroxytetrahydrofuran-2-yl)methyl 2-propyl pentanoate], the IC50 was determined as 691 nM in assay [1] (setting [4]); 21.1 nM in assay [1] (setting [5]); 14 nM in assay [2] (72 h); 20 nM in assay [2]; 119 nM in assay [3] (setting [6]); 111 nM in assay [3] (setting [7]). Moreover, the “Fold Change vs EFdA” value in assay [1] is given as 1.31. For the same compound, in assay [1], the “Persistence Index” value was 32.78.
Turning to `C#C[C@]1(CO)O[C@@H](n2cnc3c(N)nc(F)nc32)C[C@@H]1O` [EFdA, (2R,3S,5R)-5-(6-amino-2-fluoro-9H-purin-9-yl)-2-ethynyl-2-(hydroxymethyl)tetrahydrofuran-3-ol, reference compound], the IC50 in assay [1] (setting [5]) was determined as 7.4 nM. Further, in assay [1], the “Fold Change vs EFdA” value is 1.00 and the “Persistence Index” value is on record as 42.87.
Take `C#C[C@]1(COC(=O)CCCCCCC/C=C\C/C=C\C/C=C\CC)O[C@@H](n2cnc3c(N)nc(F)nc32)C[C@@H]1O` [Example 6, (9Z,12Z,15Z)-((2R,3S,5R)-5-(6-amino-2-fluoro-9H-purin-9-yl)-2-ethynyl-3-hydroxytetrahydrofuran-2-yl)methyl octadeca-9,12,15-trienoate]: the IC50 in assay [1] (setting [4]) was found to be 180 nM; in assay [1] (setting [5]), 3.7 nM; in assay [2] (72 h), 4 nM; in assay [2], 4 nM; in assay [3] (setting [6]), 24 nM; in assay [3] (setting [7]), 21 nM. The “Fold Change vs EFdA” value in assay [1] is 0.75. The “Persistence Index” value in assay [1] came to 56.90.
As for `C#C[C@]1(COC(=O)CCCCCCCCCCCCCC)O[C@@H](n2cnc3c(N)nc(F)nc32)C[C@@H]1O` [Example 14, ((2R,3S,5R)-5-(6-amino-2-fluoro-9H-purin-9-yl)-2-ethynyl-3-hydroxytetrahydrofuran-2-yl)methyl pentadecanoate], the IC50 in assay [2] was determined as 2 nM; in assay [3] (setting [7]), 11 nM.
As for `C#C[C@]1(COC(=O)CCCCCCCCCCCCC)O[C@@H](n2cnc3c(N)nc(F)nc32)C[C@@H]1O` [Example 1, ((2R,3S,5R)-5-(6-amino-2-fluoro-9H-purin-9-yl)-2-ethynyl-3-hydroxytetrahydrofuran-2-yl)methyl tetradecanoate], the IC50 was found to be 89.1 nM in assay [1] (setting [4]); 2.5 nM in assay [1] (setting [5]); 2 nM in assay [2] (72 h); 1 nM in assay [2]; 12 nM in assay [3] (setting [6]); 10 nM in assay [3] (setting [7]). Further, in assay [1], the “Fold Change vs EFdA” value stood at 1.33. The “Persistence Index” value in assay [1] came to 35.22.
Take `C#C[C@]1(COC(=O)CCCCCCCCCCCCCCCCCCC)O[C@@H](n2cnc3c(N)nc(F)nc32)C[C@@H]1O` [Example 5, ((2R,3S,5R)-5-(6-amino-2-fluoro-9H-purin-9-yl)-2-ethynyl-3-hydroxytetrahydrofuran-2-yl)methyl icosanoate]: the IC50 in assay [1] (setting [4]) amounted to 102 nM; in assay [1] (setting [5]) it was 51.7 nM; in assay [2] (72 h), 70 nM; in assay [2], 67 nM; in assay [3] (setting [6]), 322 nM; in assay [3] (setting [7]), 333 nM. Also, the “Fold Change vs EFdA” value in assay [1] amounted to 23.90. Further, the “Persistence Index” value in assay [1] is on record as 1.97.

For orientation: IC50 means the concentration needed to halve the response being measured.

Values taken from patent publication US20200407393A1, “Medical Use” (priority 2018, published 2020).
